US20230331731A1, “CRYSTAL FORM OF PYRROLO HETEROCYCLIC DERIVATIVE AND PREPARATION METHOD THEREFOR” (Jiangsu Hengrui Pharmaceuticals Co., Ltd., priority 2020, published 2023)

Tests used:
[1] = Influencing factor stability study; format: physicochemical; details: for physical and chemical stability (conclusion): high-temperature conditions (40° C. and 60° C.) and high-humidity conditions (75% and 92.5%)
[2] = Long-term/accelerated stability study; format: physicochemical; details: for Crystal form / Purity, 1 month / physical and chemical stability (conclusion): 1 month; for physical and chemical stability (conclusion): long-term and accelerated stability conditions
Experimental: 1. The hydrobromide in crystal form α was left to stand under 25° C., 60% RH conditions and 40° C., 75% RH conditions to investigate its stability.
4. The fumarate in crystal form II was subjected to 6-month long-term (25° C., 60% RH) and accelerated (40° C., 75% RH) stability studies.

## Br.Cn1nccc1Nc1nccc(-c2cc3n(c2)C(=O)N([C@H](CO)c2cccc(Cl)c2)C3)n1 [Hydrobromide in crystal form α]
[1]; 40° C., open, 7 days
  Color and appearance: Off-white solid
  Crystal form: Did not change
  Main peak purity: 99.42%
[1]; 40° C., open, 14 days
  Color and appearance: Off-white solid
  Crystal form: Did not change
  Main peak purity: 99.32%
[1]; 40° C., open, 30 days
  Color and appearance: Off-white solid
  Crystal form: Did not change
  Main peak purity: 99.28%
[1]; 60° C., open, 7 days
  Color and appearance: Off-white solid
  Crystal form: Did not change
  Main peak purity: 99.38%
[1]; 60° C., open, 14 days
  Color and appearance: Off-white solid
  Crystal form: Did not change
  Main peak purity: 98.99%
[1]; 60° C., open, 30 days
  Color and appearance: Off-white solid
  Crystal form: Did not change
  Main peak purity: 99.02%
[1]; 75% RH, open, 7 days
  Color and appearance: Off-white solid
  Crystal form: Did not change
  Main peak purity: 99.41%
[1]; 75% RH, open, 14 days
  Color and appearance: Off-white solid
  Crystal form: Did not change
  Main peak purity: 99.30%
[1]; 75% RH, open, 30 days
  Color and appearance: Off-white solid
  Crystal form: Did not change
  Main peak purity: 99.31%
[1]; 92.5% RH, open, 7 days
  Color and appearance: Off-white solid
  Crystal form: Did not change
  Main peak purity: 99.39%
[1]; 92.5% RH, open, 14 days
  Color and appearance: Off-white solid
  Crystal form: Did not change
  Main peak purity: 99.42%
[1]; 92.5% RH, open, 30 days
  Color and appearance: Off-white solid
  Crystal form: Did not change
  Main peak purity: 99.28%
[1]; 4500 Lux, open, 7 days
  Color and appearance: Off-white solid
  Crystal form: Did not change
  Main peak purity: 99.09%
[1]; 4500 Lux, open, 14 days
  Color and appearance: Off-white solid
  Crystal form: Did not change
  Main peak purity: 98.94%
[1]; 4500 Lux, open, 30 days
  Color and appearance: Off-white solid
  Crystal form: Did not change
  Main peak purity: 98.50%
[1]; 30 days
  physical and chemical stability (conclusion): relatively good physical and chemical stability
[2]; 25° C., 60%RH
  Crystal form: α
  Purity, 1 month: 99.33%
[2]; 40° C., 75%RH
  Crystal form: α
  Purity, 1 month: 99.24%
[2]
  Purity, Initial: 99.43%
  physical and chemical stability (conclusion): good physical and chemical stability

## Br.Br.Cn1nccc1Nc1nccc(-c2cc3n(c2)C(=O)N([C@H](CO)c2cccc(Cl)c2)C3)n1 [Hydrobromide in crystal form β]
[1]; 40° C., open, 7 days
  Color and appearance: Off-white solid
  Crystal form: Did not change
  Main peak purity: 99.13%
[1]; 40° C., open, 14 days
  Color and appearance: Off-white solid
  Crystal form: Did not change
  Main peak purity: 99.07%
[1]; 40° C., open, 30 days
  Color and appearance: Off-white solid
  Crystal form: Did not change
  Main peak purity: 98.96%
[1]; 60° C., open, 7 days
  Color and appearance: Off-white solid
  Crystal form: Did not change
  Main peak purity: 98.82%
[1]; 60° C., open, 14 days
  Color and appearance: Off-white solid
  Crystal form: Did not change
  Main peak purity: 98.82%
[1]; 60° C., open, 30 days
  Color and appearance: Off-white solid
  Crystal form: Did not change
  Main peak purity: 98.88%
[1]; 75% RH, open, 7 days
  Color and appearance: Off-white solid
  Crystal form: Did not change
  Main peak purity: 99.13%
[1]; 75% RH, open, 14 days
  Color and appearance: Off-white solid
  Crystal form: Did not change
  Main peak purity: 99.11%
[1]; 75% RH, open, 30 days
  Color and appearance: Off-white solid
  Crystal form: Did not change
  Main peak purity: 99.11%
[1]; 92.5% RH, open, 7 days
  Color and appearance: Off-white solid
  Crystal form: Did not change
  Main peak purity: 99.09%
[1]; 92.5% RH, open, 14 days
  Color and appearance: Off-white solid
  Crystal form: Did not change
  Main peak purity: 99.15%
[1]; 92.5% RH, open, 30 days
  Color and appearance: Off-white solid
  Crystal form: Did not change
  Main peak purity: 98.93%
[1]; 4500 Lux, open, 7 days
  Color and appearance: Off-white solid
  Crystal form: Did not change
  Main peak purity: 98.99%
[1]; 4500 Lux, open, 14 days
  Color and appearance: Off-white solid
  Crystal form: Did not change
  Main peak purity: 98.54%
[1]; 4500 Lux, open, 30 days
  Color and appearance: Off-white solid
  Crystal form: Did not change
  Main peak purity: 98.28%
[1]; Initial, 0 days
  Color and appearance: Off-white solid
  Crystal form: Crystal form β
  Main peak purity: 99.12%
[1]; 30 days
  physical and chemical stability (conclusion): relatively good physical and chemical stability
[2]; 25° C., 60%RH
  Crystal form: β
  Purity, 1 month: 98.99%
[2]; 40° C., 75%RH
  Crystal form: β
  Purity, 1 month: 99.00%
[2]
  Purity, Initial: 99.17%
  physical and chemical stability (conclusion): good physical and chemical stability

## Cn1nccc1Nc1nccc(-c2cc3n(c2)C(=O)N([C@H](CO)c2cccc(Cl)c2)C3)n1.Cn1nccc1Nc1nccc(-c2cc3n(c2)C(=O)N([C@H](CO)c2cccc(Cl)c2)C3)n1.O=C(O)/C=C/C(=O)O [Fumarate in crystal form IV]
[1]; 40° C., open, 7 days
  Color and appearance: Pale yellow solid
  Crystal form: Did not change
  Main peak purity: 99.46%
[1]; 40° C., open, 14 days
  Color and appearance: Pale yellow solid
  Crystal form: Did not change
  Main peak purity: 99.47%
[1]; 40° C., open, 30 days
  Color and appearance: Pale yellow solid
  Crystal form: Did not change
  Main peak purity: 99.26%
[1]; 60° C., open, 7 days
  Color and appearance: Pale yellow solid
  Crystal form: Did not change
  Main peak purity: 99.45%
[1]; 60° C., open, 14 days
  Color and appearance: Pale yellow solid
  Crystal form: Did not change
  Main peak purity: 99.46%
[1]; 60° C., open, 30 days
  Color and appearance: Pale yellow solid
  Crystal form: Did not change
  Main peak purity: 99.23%
[1]; 75% RH, open, 7 days
  Color and appearance: Pale yellow solid
  Crystal form: Did not change
  Main peak purity: 99.52%
[1]; 75% RH, open, 14 days
  Color and appearance: Pale yellow solid
  Crystal form: Did not change
  Main peak purity: 99.43%
[1]; 75% RH, open, 30 days
  Color and appearance: Pale yellow solid
  Crystal form: Did not change
  Main peak purity: 99.36%
[1]; 92.5% RH, open, 7 days
  Color and appearance: Pale yellow solid
  Crystal form: Did not change
  Main peak purity: 99.47%
[1]; 92.5% RH, open, 14 days
  Color and appearance: Pale yellow solid
  Crystal form: Did not change
  Main peak purity: 99.45%
[1]; 92.5% RH, open, 30 days
  Color and appearance: Pale yellow solid
  Crystal form: Did not change
  Main peak purity: 99.40%
[1]; 4500 Lux, open, 7 days
  Color and appearance: Pale yellow solid
  Crystal form: Did not change
  Main peak purity: 99.43%
[1]; 4500 Lux, open, 14 days
  Color and appearance: Pale yellow solid
  Crystal form: Did not change
  Main peak purity: 99.29%
[1]; 4500 Lux, open, 30 days
  Color and appearance: Pale yellow solid
  Crystal form: Did not change
  Main peak purity: 99.19%
[1]; Initial, 0 days
  Color and appearance: Pale yellow solid
  Crystal form: Crystal form IV
  Main peak purity: 99.47%
[1]; 30 days
  physical and chemical stability (conclusion): relatively good physical and chemical stability
[2]; 25° C., 60%RH
  Purity, 1 month: 99.40%
[2]; 40° C., 75%RH
  Purity, 1 month: 99.34%
[2]
  Purity, Initial: 99.46%
  physical and chemical stability (conclusion): good physical and chemical stability
